Laboratory results published in patent US11234943B2, “Use of reservatrol for the treatment of non-alcoholic fatty liver disease (NAFLD)” (priority 2016, dated 2022).
Several values for one entry are separate records, joined by “and”; a condition that tells them apart may be missing. Equal entries are not always repeated.

Tested on: patients with NAFLD
Test: Quantitative ultrasound liver/kidney echo measurement (liver fat), hepatic/renal value
Assay type: in vivo, human
Set-up: key to Difference (Liver Value − Kidney Value): hepatic minus renal cortex mean gray scale (US hepatic/renal value); key to Liver Value / Kidney Value: mean gray scale value of pixels within the ROI (echo intensity)
Excerpt: A GE Log IQ5 expert Ultrasound Machine equipped with Ultrasound Transducer Probe (GE 3.5C model 2050357) The equipment can measure the Echo Level (EL) at specific areas and depths. EL measures the mean intensity of pixels within a user defined area (region of interest). Raw data provides the average sum (intensity per pixel)/pixels. The ultrasound depicts on screen the area (in cm^2), mean (intensity dB) and standard deviation (dispersion) Phantom Model 040GSE (CIRS-Multi Purpose, Multi Tissue u/s Phantom) to calibrate the Log IQ. The specific phantom simulates the human liver and kidney organs and serves for calibration.
Regarding the parameters “liver/kidney value” and “liver/kidney depth” we used the same methodology used by Ming-Feng Xia et al., Standardized Ultrasound Hepatic/Renal Ratio and Hepatic Attenuation Rate to Quantify Liver Fat Content: An Improvement Method 10.1038/oby.2011.302.
Ultrasound studies were performed by an experienced radiologist who was unaware of the patient's clinical details and laboratory findings. All the instrument settings, including gain and depth were fixed for each measurement. For assessment of ultrasound hepatic/renal echo value, ultrasound images with both liver and right kidney clearly visualized were obtained in the sagittal liver/right kidney view in the lateral position. A region of interest (ROI) was carefully selected excluding blood vessels, bile ducts and other focal hypoechoic or hyperechoic regions. Another ROI was identified in the right renal cortex with no large vessels, renal sinus or medulla. To avoid the interference of depth-depended echo-intensity attenuation and the borderline echo distorting effects, the boundary between liver and right kidney area should be placed near the center of the image, and the liver and right kidney ROIs were selected at the same depth of the ultrasound images. The gray scale mean value of the pixels within the two ROIs was used as measurement of echo intensity then we subtracted the average hepatic gray scale by the average renal cortex gray scale to calculate the US hepatic/renal value.
Standardization of ultrasound quantitative parameters was performed using an abdominal phantom.
Attenuation measurements were taken at 2 depths, at the Regions of Interest (ROI) xxcm (liver) and yycm (kidney). Attenuation was calculated by subtracting the EL (liver)−EL (kidney)=Hepato-Renal Index Difference.
In sagittal liver/right kidney view, a region of interest (ROI) of 1.5×1.5 cm (1,296 pixels) in the liver parenchyma was selected. The ROI had to be as uniform as possible, excluding blood vessels, bile ducts, and other focal hypo/hyper-echogenicity. Another ROI of 0.5×0.5 cm (144 pixels) was identified in the right renal cortex with no large vessels, renal sinus or medulla. To avoid the interference of depth-depended echo-intensity attenuation and the borderline echo distorting effects, the boundary between liver and right kidney area should be placed near the center of the image, and the liver and right kidney ROIs were selected at the same depth of the ultrasound images. The gray scale mean value of the pixels within the two ROIs was used as measurement of echo intensity. Then we subtracted the average hepatic gray scale by the average renal cortex gray scale to calculate the US hepatic/renal value.
To standardize the measured values of US H/R value and hepatic echo-intensity attenuation rate among different ultrasound machines, a 3D abdominal phantom, containing mimic abdominal organs, was used for standardization in this research.
Then, the patients were divided into two groups (randomly assigned) according to the treatment given to them. 22 patients were given treatment 50 mg RSV micronized formulation, Evelor capsules once daily, (Group A) and 22 patients were given treatment 200 mg RSV micronized formulation, Evelor capsules, once daily, (Group B). The observation period lasted for 6 months. […]

[1] = Group A, 50 mg once daily, mean at time 1 (beginning of study)
[2] = Group A, 50 mg once daily, mean at time 2 (6 months)
[3] = Group B, 200 mg once daily, mean at time 1 (beginning of study)
[4] = Group B, 200 mg once daily, mean at time 2 (6 months)
[5] = individual patients of Group A (50 mg), first ultrasound, 0 month
[6] = individual patients of Group A (50 mg), fourth ultrasound, 2.5 years from the end of the study
[7] = individual patients of Group A (50 mg), second ultrasound, 6 months
[8] = individual patients of Group A (50 mg), third ultrasound, 6 months after the end of the study
[9] = individual patients of Group B (200 mg), first ultrasound, 0 month
[10] = individual patients of Group B (200 mg), fourth ultrasound, 2.5 years from the end of the study
[11] = individual patients of Group B (200 mg), second ultrasound, 6 months
[12] = individual patients of Group B (200 mg), third ultrasound, 6 months after the end of the study

SMILES: Oc1ccc(/C=C/c2cc(O)cc(O)c2)cc1 [Resveratrol, resveratrol]
- Difference L − K value [1]: 22.71
- Kidney Value [1]: 32.49
- Liver Value [1]: 55.20
- Difference L − K value [2]: 17.00
- Kidney Value [2]: 28.42
- Liver Value [2]: 45.42
- Difference L − K value [3]: 26.46
- Kidney Value [3]: 32.30
- Liver Value [3]: 58.77
- Difference L − K value [4]: 18.115
- Kidney Value [4]: 25.21
- Liver Value [4]: 43.33
- liver fat as evidenced by ultrasound measurements (groups A and B, end of the study): strongly statistically significant reduction
- Difference (Liver Value − Kidney Value) [5]: 14.6 and 32.9 and 20.1 and 23.3 and 43.7 and 34.3
- Kidney Value [5]: 30.4 and 35.0 and 25.3 and 32.6 and 52.4 and 7.0
- Liver Value [5]: 45.0 and 67.9 and 45.4 and 55.9 and 96.1 and 41.3
- Difference (Liver Value − Kidney Value) [6]: 5.5 and 9.8
- Kidney Value [6]: 75.0 and 75.2
- Liver Value [6]: 80.5 and 85.0
- Difference (Liver Value − Kidney Value) [7]: 12.8 and 29.5 and 11.8 and 19 and 18.5 and 20.9
- Kidney Value [7]: 29.2 and 26.4 and 20.1 and 30.8 and 26.5 and 21.0
- Liver Value [7]: 42.0 and 55.9 and 31.9 and 49.8 and 45.0 and 41.9
- Difference (Liver Value − Kidney Value) [8]: 16.7 and 10.3 and 24.4 and 1.6 and 17.6 and 9.4
- Kidney Value [8]: 81.1 and 60.0 and 64.5 and 57.3 and 67.6 and 48.1
- Liver Value [8]: 97.8 and 70.3 and 88.9 and 58.9 and 85.2 and 57.5
- Difference (Liver Value − Kidney Value) [9]: 28.2 and 35.5 and 32.3 and 47.3 and 24.1 and 20.5 and 41 and 18.8
- Kidney Value [9]: 32.2 and 26.5 and 23.6 and 39.5 and 22.7 and 14.2 and 28.6 and 33.3
- Liver Value [9]: 60.4 and 62.0 and 55.9 and 86.8 and 46.8 and 34.7 and 69.6 and 52.1
- Difference (Liver Value − Kidney Value) [10]: 7.9 and 5 and 17.3
- Kidney Value [10]: 31.2 and 41.0 and 42.8
- Liver Value [10]: 39.1 and 46.0 and 60.1
- Difference (Liver Value − Kidney Value) [11]: 14.8 and 23.9 and 19 and 34.2 and 22.2 and 7.4 and 33.5 and 16.4
- Kidney Value [11]: 33.0 and 22.1 and 31.1 and 18.9 and 14.4 and 42.4 and 17.0 and 16.8
- Liver Value [11]: 47.8 and 46.0 and 50.1 and 53.1 and 36.6 and 49.8 and 50.5 and 33.2
- Difference (Liver Value − Kidney Value) [12]: 13.2 and 8.9 and 22.1 and 10 and 18.3 and 13.7 and 6 and 16.8
- Kidney Value [12]: 61.7 and 53.0 and 55.2 and 84.3 and 55.9 and 71.5 and 75.3 and 40.4
- Liver Value [12]: 74.9 and 61.9 and 77.3 and 94.3 and 74.2 and 85.2 and 81.3 and 57.2
